Experimental data taken from patent publication US20260327264A1, “PEPTIDE INHIBITORS OF INTERLEUKIN-23 RECEPTOR” (Zealand Pharma A/S, priority 2023, published 2026).
*1 amine or outer side, *2 acyl side, *3 side chain or, on linkers, in order; H or OH if unused. Where a SMILES comes first, the peptide text is derived from it. Bridges are numbered along the chain shown (N, C = ends). [ ]: non-standard residue; d: D form. 2Nal = N[C@@H](Cc1ccc2ccccc2c1)C(=O)O; AEF = NCCOc1ccc(C[C@H](N)C(=O)O)cc1; X1 = O=C(Cc1ccc(CN[*:1])cc1)[*:2]; 3Pal = N[C@@H](Cc1cccnc1)C(=O)O; αMeL = CC(C)C[C@](C)(N)C(=O)O; CH2COCH2 = O=C(C[*:1])C[*:2]; 3Amb = NCc1cccc(C(=O)O)c1; NMeS = CN[C@@H](CO)C(=O)O; NMeA = CN[C@@H](C)C(=O)O; Dab = NCC[C@H](N)C(=O)O; Aib = CC(C)(N)C(=O)O; βAla = NCCC(=O)O

Key:
human IL-23R = biological target: T1, human IL-23R (Homo sapiens, UniProt Q5VWK5); experiment: Binding assay: displacement of fluorophore (TAMRA)-labelled reference compound from human IL-23R (BRET, Nluc-IL23R fusion protein membranes); conditions: for Emax: read-out: % displacement (hIL-23R binding)
T1 construct: Nanoluc luciferase (Nluc); secretion signal encoded by the plasmid (not specified); expressed in transfected cells; crude membranes used in the assay
T1 sequence (Q5VWK5 22-629): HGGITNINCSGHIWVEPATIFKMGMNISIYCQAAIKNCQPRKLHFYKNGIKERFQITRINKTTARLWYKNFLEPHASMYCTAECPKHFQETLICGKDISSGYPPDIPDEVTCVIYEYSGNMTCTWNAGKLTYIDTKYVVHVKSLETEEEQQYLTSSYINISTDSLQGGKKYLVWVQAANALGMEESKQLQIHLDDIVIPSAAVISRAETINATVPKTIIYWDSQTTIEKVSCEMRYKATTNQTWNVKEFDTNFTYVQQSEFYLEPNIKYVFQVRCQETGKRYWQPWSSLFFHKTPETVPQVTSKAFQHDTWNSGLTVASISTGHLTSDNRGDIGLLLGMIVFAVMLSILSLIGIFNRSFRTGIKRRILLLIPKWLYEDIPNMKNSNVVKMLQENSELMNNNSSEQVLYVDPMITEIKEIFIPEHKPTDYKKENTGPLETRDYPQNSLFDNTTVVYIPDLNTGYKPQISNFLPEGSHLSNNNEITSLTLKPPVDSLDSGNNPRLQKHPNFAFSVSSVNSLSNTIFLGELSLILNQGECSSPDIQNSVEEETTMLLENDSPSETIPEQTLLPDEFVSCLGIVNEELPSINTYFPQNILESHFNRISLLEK

[1] = tested on: IL-23 mediated STAT3 signalling (DB cells); experiment: Functional inhibition of IL-23 mediated STAT3 signalling (phospho-STAT3 Tyr705) in DB cells; format: cell-based, human; conditions: for IC50: Table 3-2, EC80 of hIL-23, read-out: hIL-23 (pSTAT3) antagonist IC50; for hIL-23 (pSTAT3) antagonist % inhibition: Table 3-2, maximal inhibitory response, EC80 of hIL-23
Text: Upon binding of IL-23, the IL-23R forms a heterodimer signalling complex together with IL-12R β1, which through the JAK2/STAT3 pathway promotes phosphorylation of STAT3 to form phospho-STAT3.
For compounds tested in this assay, the response was normalized relative to control values to calculate the IC50 and maximal inhibitory response from a concentration response curve of the compound in presence of a fixed concentration of human IL-23.
The assay procedure was as follows. […] Following preincubation of the DB cells with inhibitor for 15 min in a cell incubator (37° C., 5% CO2), 20 μL of the prepared 3× the EC80 of hIL-23 solution was added to each well and incubated for 90 min in a cell incubator (37° C., 5% CO2). For some wells buffer only or IL-23 only corresponding to the EC80 was added to obtain readouts needed for normalization. To terminate the assay, the plate was spun at 1000 G for 5 min to pellet cells, the supernatant removed using an 8-channel manual pipette, and then added 50 μL/well Complete Lysis Buffer from the MSD STAT3 kit (Cat #K150SVD, Mesoscale) to the cell pellet. To completely lyse cells to release phospho-STAT3 for detection, the plate was shaken for 10 min at room temperature (500 rpm) sealed with aluminium foil and placed at −80° C. for a minimum of 15 min. Detection of the phospho-STAT3 level in the cell lysate from the individual wells was determined using the MSD STAT3 kit (Cat #K150SVD, Mesoscale) and read on a Meso QuickPlex SQ 120 plate reader (Mesoscale).
For data analysis raw data counts from the Meso QuickPlex SQ 120 plate reader were normalized relative to the response by the EC80 of hIL-23 alone (no compound added) and the buffer level.

| Emax (human IL-23R) | IC50 (human IL-23R) | IC50 [1] | Compound | hIL-23 (pSTAT3) antagonist % inhibition [1] |
| --- | --- | --- | --- | --- |
| 102% | – | – | CC(C)C[C@]1(C)NC(=O)[C@H](Cc2ccc3ccccc3c2)NC(=O)[C@H](Cc2ccc(OCCN)cc2)NC(=O)[C@@H]2CSCC(=O)CSC[C@H](NC(=O)[C@H](CO)N(C)C(=O)Cc3ccc(cc3)CNC(=O)CC[C@@H](C(=O)N[C@@H](CCN)C(N)=O)NC1=O)C(=O)N[C@@H](Cc1c[nH]c3ccccc13)C(=O)N[C@@H](CCC(N)=O)C(=O)N2 [Ref 141, [4-Aminomethyl-phenylacetyl](1c)*[N—Me-Ser]C(2a)WQC(2a)[Y(2-aminoethoxy)][2-Nal][2-Me-Leu]E(1c)[Dab]-[NH2], reference compound] ([X1][NMeS]CWQC[AEF][2Nal][αMeL]E[Dab]-NH2; linker 3-6 via CH2COCH2; lactam N-10) | – |
| 96% | 0.01 nM | – | CNC(=O)[C@H](Cc1cccnc1)NC(=O)[C@H](CCN)NC(=O)[C@@H]1CCC(=O)NCc2ccc(cc2)CC(=O)N(C)[C@@H](C)C(=O)N[C@H]2CCC(=O)NCC[C@H](NC(=O)[C@H](CCC(N)=O)NC(=O)[C@H](Cc3c[nH]c4ccccc34)NC2=O)C(=O)N[C@@H](Cc2ccc(OCCN)cc2)C(=O)N[C@@H](Cc2ccc3ccccc3c2)C(=O)NC(C)(C)C(=O)N1 [Compound 48, [4-aminomethyl-phenylacetyl(1c)*][N—Me-Ala]E(2c)WQ[Dab](2c)[Y(2-aminoethoxy)][2Nal][Aib]E(1c)[Dab][3-(3-Pyridyl)-alanyl]-[NHMe]] ([X1][NMeA]EWQ[Dab][AEF][2Nal][Aib]E[Dab][3Pal]-NHMe; lactam 3-6, N-10) | – |
| 105% | – | – | CC(C)C[C@]1(C)NC(=O)[C@H](Cc2ccc3ccccc3c2)NC(=O)[C@H](Cc2ccc(OCCN)cc2)NC(=O)[C@@H]2CSCC(=O)CSC[C@H](NC(=O)[C@H](CO)NC(=O)[C@H](Cc3cccnc3)NC(=O)CCNC(=O)CC[C@@H](C(=O)N[C@H](CCCNC(=N)N)C(N)=O)NC1=O)C(=O)N[C@@H](Cc1c[nH]c3ccccc13)C(=O)N[C@@H](CCC(N)=O)C(=O)N2 [Compound 1, [3-Aminopropanoyl](4c)*[3-(3-Pyridyl)-Ala]SC(2a)WQC(2a)[Y(2-aminoethoxy)][2-Nal][2-Me-Leu]E(4c)[{d}R]-[NH2]] ([βAla][3Pal]SCWQC[AEF][2Nal][αMeL]E[dR]-NH2; linker 4-7 via CH2COCH2; lactam N-11) | – |
| – | – | 1.4 nM | CC(C)C[C@]1(C)NC(=O)[C@H](Cc2ccc3ccccc3c2)NC(=O)[C@H](Cc2ccc(OCCN)cc2)NC(=O)[C@@H]2CCNC(=O)CC[C@H](NC(=O)[C@H](CO)NC(=O)Cc3ccc(cc3)CNC(=O)CC[C@@H](C(=O)NC[C@@H](N[C@@H](Cc3cccnc3)C(N)=O)C(F)(F)F)NC1=O)C(=O)N[C@@H](Cc1c[nH]c3ccccc13)C(=O)N[C@@H](CCC(N)=O)C(=O)N2 [Compound 16, [4-Aminomethyl-phenylacetyl](1c)*SE(2c)WQ[Dab](2c)[Y(2-aminoethoxy)][2-Nal][2-Me-Leu]E(1c)[{d}Gly-CF3][3-(3-Pyridyl)-Ala]-[NH2]] | 97% |
| – | – | 0.13 nM | CC(C)C[C@]1(C)NC(=O)[C@H](Cc2ccc3ccccc3c2)NC(=O)[C@H](Cc2ccc(OCCN)cc2)NC(=O)[C@@H]2CSCC(=O)CSC[C@H](NC(=O)[C@H](CO)NC(=O)c3cccc(c3)CNC(=O)CC[C@@H](C(=O)N[C@@H](CCCNC(=N)N)C(=O)N[C@@H](Cc3cccnc3)C(N)=O)NC1=O)C(=O)N[C@@H](Cc1c[nH]c3ccccc13)C(=O)N[C@@H](CCC(N)=O)C(=O)N2 [Ref 78, [(3-Aminomethyl)benzoyl](1c)*SC(2a)WQC(2a)[Y(2-aminoethoxy)][2-Nal][2-Me-Leu]E(1c)R[3-(3-Pyridyl)-Ala]-[NH2], reference compound] ([3Amb]SCWQC[AEF][2Nal][αMeL]ER[3Pal]-NH2; linker 3-6 via CH2COCH2; lactam N-10) | 100% |
| 102% | – | – | CC(=O)N[C@H]1CCSC[C@@H](C(=O)N[C@@H](Cc2ccc(OCCN)cc2)C(=O)N[C@@H](Cc2c[nH]c3ccccc23)C(=O)N[C@@](C)(CCCCN)C(=O)N[C@@H](CCC(=O)O)C(=O)N[C@@H](CC(N)=O)C(=O)NCC(N)=O)NC(=O)[C@H](CCC(N)=O)NC(=O)[C@H](Cc2c[nH]c3ccccc23)NC(=O)[C@H]([C@@H](C)O)NC(=O)[C@H](CCC(N)=O)NC1=O [Compound C, [Ac]-[Abu](16i)QTWQC(16i)[Y(2-aminoethoxy)]W[2-Me-Lys]ENG-[NH2], reference compound] | – |
| 100% | 12 nM | – | CNC(=O)[C@H](Cc1cccnc1)NC(=O)[C@H](CCN)NC(=O)[C@@H]1CCC(=O)NCc2ccc(cc2)CC(=O)N[C@@H](C)C(=O)N[C@H]2CCC(=O)NCC[C@H](NC(=O)[C@H](CCC(N)=O)NC(=O)[C@H](Cc3c[nH]c4ccccc34)NC2=O)C(=O)N[C@@H](Cc2ccc(OCCN)cc2)C(=O)N[C@@H](CC2CC2)C(=O)NC(C)(C)C(=O)N1 [Compound 42, [4-Aminomethyl-phenylacetyl](1c)*AE(2c)WQ[Dab](2c)[Y(2-aminoethoxy)][Cyclopropyl-Ala][Aib]E(1c)[Dab][3-(3-Pyridyl)-Ala]-[NHMe]] | – |
| 98% | 1.2 nM | – | CC(C)C[C@]1(C)NC(=O)[C@H](Cc2ccc3ccccc3c2)NC(=O)[C@H](Cc2ccc(OCCN)cc2)NC(=O)[C@@H]2CCNC(=O)CC[C@H](NC(=O)[C@H](CO)NC(=O)Cc3ccc(cc3)CNC(=O)CC[C@@H](C(=O)NC[C@H](N[C@@H](Cc3cccnc3)C(N)=O)C(F)(F)F)NC1=O)C(=O)N[C@@H](Cc1c[nH]c3ccccc13)C(=O)N[C@@H](CCC(N)=O)C(=O)N2 [Compound 17, [4-Aminomethyl-phenylacetyl](1c)*SE(2c)WQ[Dab](2c)[Y(2-aminoethoxy)][2-Nal][2-Me-Leu]E(1c)[Gly-CF3][3-(3-Pyridyl)-Ala]-[NH2]] | – |
| 102% | 0.23 nM | – | CNC(=O)[C@H](Cc1cccnc1)NC(=O)[C@H](COC)NC(=O)[C@@H]1CCC(=O)NCc2ccc(cc2)CC(=O)N[C@@H](C)C(=O)N[C@H]2CCC(=O)NCC[C@H](NC(=O)[C@H](CCC(N)=O)NC(=O)[C@H](Cc3c[nH]c4ccccc34)NC2=O)C(=O)N[C@@H](Cc2ccc(N3CCOCC3)cc2)C(=O)N[C@@H](Cc2ccc3ccccc3c2)C(=O)NC(C)(C)C(=O)N1 [Compound 53, [4-aminomethyl-phenylacetyl](1c)*AE(2c)WQ[Dab](2c)[F(4-morpholine)][2Nal][Aib]E(1c)[Ser(OCH3)][3-(3-Pyridyl)-alanyl]-[NHMe]] | – |
| – | – | 370 nM | CC(=O)N[C@@H](CC(=O)O)C(=O)N[C@H]1CCC(=O)NCCCC[C@@H](C(=O)N[C@@H](CCCNC(=N)N)C(N)=O)NC(=O)[C@H](CC(C)C)NC(=O)[C@H](Cc2ccc3ccccc3c2)NC(=O)[C@H](Cc2c[nH]c3ccccc23)NC(=O)[C@@H]2CSCC(=O)CSC[C@H](NC(=O)[C@H](CO)NC1=O)C(=O)N[C@@H](Cc1c[nH]c3ccccc13)C(=O)N[C@@H](CCC(N)=O)C(=O)N2 [Ref 17, [Ac]-DE(1c)SC(2a)WQC(2a)W[2-Nal]LK(1c)R-[NH2], reference compound] | – |
| – | – | 11 nM | CC(C)C[C@]1(C)NC(=O)[C@H](Cc2ccc3ccccc3c2)NC(=O)[C@H](Cc2ccc(OCCN)cc2)NC(=O)[C@@H]2CSCC(=O)CSC[C@H](NC(=O)[C@H](CO)NC(=O)Cc3ccc(cc3)CNC(=O)CC[C@@H](C(=O)N[C@H](CCCNC(=N)N)C(N)=O)NC1=O)C(=O)N[C@@H](Cc1c[nH]c3ccccc13)C(=O)N[C@@H](CCC(N)=O)C(=O)N2 [Ref 80, [4-Aminomethyl-phenylacetyl](1c)*SC(2a)WQC(2a)[Y(2-aminoethoxy)][2-Nal][2-Me-Leu]E(1c)[{d}R]-[NH2], reference compound] ([X1]SCWQC[AEF][2Nal][αMeL]E[dR]-NH2; linker 3-6 via CH2COCH2; lactam N-10) | 97% |
